In brackets after ≈: the same amount, converted by molar mass.
Columns and labels:
Assay type in all cases: physicochemical
[1] = Cyclic voltammetry in cavity micro-electrode, three-electrode cell; conditions: for shift of redox potential on sulphonation, lower oxidation state / shift of redox potential on sulphonation, upper oxidation state: 0.1 M HClO4, sulphonated form in comparison to the parent molecule
Method: Attenuated Total Reflectance-Fourier Transform InfraRed (ATR-FTIR) spectra were recorded on Vertex 70 spectrometer (Bruker) in the range of wavelength of 4000-400 cm^−1. Differential Scanning Calorimetry measurements (DSC) were carried out on a TA Instruments Q2000 model in a sealed Al pan at a heating rate of 5° C. min^−1 in the temperature range between −80° C. and 100° C. The cyclic voltammetry measurements were performed in a cavity micro-electrode (CME) with an electrochemical interface area around a fraction of mm^2 and ohmic drop coming from the bulk of the electrolyte that can be neglected, allowing the use of high scan rates [C. Cachet-Vivier et al.; Electrochim. Acta 47, 181-189 (2001)]. The samples were studied electrochemically by using a three-electrode configuration cell in DI-H2O and the different supporting electrolytes with a platinum wire as counter electrode and Ag/AgCl or Hg/HgO as reference electrode depending of the acidic or basic pH of the media respectively.
The microcavity was filled with a homogenous mixture of active material (50 wt %) and carbon super C-65 (50 wt %) by applying pressure against an agate mortar. The cavity was cleaned by immersing the electrode in ethanol in an ultrasonic bath between experiments. For the CME, scan rates approximately an order of magnitude larger could be used without distortion usually seen in conventional cells [R. Lin et al., J. Electrochem. Soc. 1, A7-A12 (2009)]. All the experiments using CME were made three times for the same sample to check reliability. […] Cyclic voltammetry experiments were done from 10 mV/s to 1 V/s using a multichannel potentiostat/galvanostat (VMP3, Biologic). In order to make a direct comparison between the different samples, all current values were normalized to current values measured in the pure capacitive behavior region.

[2] = Solubility studies (maximum concentration in aqueous media); conditions: for solubility: 0.1 M HClO4, room temperature; for solubility (concentration values): medium not given
Method: These were conducted in glass vials of 25 ml volume in which the organic electrolyte compound mass ranging between 15-30 mg approximately was dissolved in DI-H2O and also in the different supporting electrolytes. The procedure was performed in the following steps: after the addition of the solid, a small volume (usually starting from 25 μl) was added by using a micropipette, the suspension was vigorously shaken by hand until complete homogenization of the media in the whole vial (bottom part and walls) was observed. After that, the vials are left standing overnight. The day after, possible precipitation at the bottom of the vial was evaluated. If some solid appeared, the addition of more volume of solvent and/or supporting electrolyte was continued until the solid disappeared completely. […] The final concentration value was only calculated for those samples showing a stable solution after several weeks.

[3] = Experimental density of the electrolyte solutions
Text: Considering the two electron-proton process taking place in the present redox molecules, for a constant amount of grams of salt the optimization of the final concentration will be a balance between the molecular weight and the packing density of the organic compounds in the electrolyte solution. Highest concentration values and subsequently of chemical-electrical energy density stored in the present systems would be achieved as higher the packing density and lower the molecular weight of the molecule. The experimental density of the present solutions containing the redox neutral salts were measured. Densities of 1.04 g/ml, 1.00 g/ml and 0.95 g/ml were measured for solutions 1.23 M of Alizarine SH in H2O, 1.17 M of Alizarine SH in H2O and 1.46 M of Alizarine SH in 0.1 M HClO4 respectively.

[4] = aqueous BR buffer at pH=7, room temperature
[5] = pure/neat DI-H2O, room temperature
[6] = vs. Ag/AgCl ref. electrode, BR buffer pH=7

## O=C1c2ccccc2C(=O)c2c(O)ccc(O)c21 [quinizarin, 1,4-dihydroxy-9,10-anthraquinone, reference compound]
[1]
  shift of redox potential on sulphonation, lower oxidation state: ~100 mV
  shift of redox potential on sulphonation, upper oxidation state: ~15 mV

## O=C1c2ccccc2C(=O)c2c1ccc(O)c2O [alizarin, 1,2-dihydroxy-9,10-anthraquinone, reference compound]
[1]
  shift of redox potential on sulphonation, lower oxidation state: ~50 mV
  shift of redox potential on sulphonation, upper oxidation state: ~35 mV

## O=C1c2ccccc2C(=O)c2c1cc(S(=O)(=O)[O-])c(O)c2O.OC[P+](CO)(CO)CO [Alizarin S. Red-TKMP]
[2]
  solubility: ~1500 mM
  solubility (concentration values): 1600 mM

## O=C1/C(=C2\Nc3ccc(S(=O)(=O)[O-])cc3C2=O)Nc2ccc(S(=O)(=O)[O-])cc21.OCC[N+](CCO)(CCO)CCO.OCC[N+](CCO)(CCO)CCO [Indigo Carmine-TKEN]
[1]; BR buffer pH=7
  peak separation of the two redox peaks: 1 V
[2]; [4]
  solubility (highest concentration): up to 0.76 M
[2]
  solubility (concentration values): up to 0.76 M
[2]; [5]
  solubility (highest concentration): up to 0.76 M

## O=C1/C(=C2\Nc3ccc(S(=O)(=O)O)cc3C2=O)Nc2ccc(S(=O)(=O)O)cc21 [Indigo Carmine-H^+]
[1]; BR buffer pH=3
  separation of the pair of reversible reduction peaks: ~0.75 V
[1]; BR buffer pH=7
  peak separation of the two redox peaks: ~1 V
[1]; BR buffer pH=9, stabilized at cycle 10
  separation of both peaks: ~0.8 V
[1]; DI-H2O, pH ~6
  anodic shift in DI-H2O relative to BR buffer pH=7: ~170 mV
[1]; neat DI-H2O
  peak separation of the two redox peaks: ~1 V
[2]; [4]
  solubility (highest concentration): ~400 mM (≈ 169 mg/mL)
[2]; [5]
  solubility (highest concentration): ~600 mM (≈ 253 mg/mL)

## O=C1C(=C2Nc3ccc(S(=O)(=O)[O-])cc3C2=O)Nc2ccc(S(=O)(=O)[O-])cc21.OC[P+](CO)(CO)CO.OC[P+](CO)(CO)CO [Indigo Carmine-TKMP]
[1]; BR buffer pH=7
  peak separation of the two redox peaks: 1 V

## O=C1/C(=C2\Nc3ccccc3C2=O)Nc2ccccc21 [Indigo, 2,2′-Bis(2,3-dihydro-3-oxoindolylidene), reference compound]
[1]; [6]
  reduction peak at negative potential: −0.44 V
  reduction peak at positive potential: 0.31 V

## O=C1C(=C2Nc3ccc(S(=O)(=O)[O-])cc3C2=O)Nc2ccc(S(=O)(=O)[O-])cc21.[Na+].[Na+] [Indigo Carmine-Na^+, 3,3′-dioxo-2,2′-bis-indolyden-5,5′-disulfonic acid disodium salt]
[1]; BR buffer pH=7
  anodic shift of both pairs of peaks relative to Indigo: approximately 80 mV

## O=C1c2ccccc2C(=O)c2c1cc(S(=O)(=O)O)c(O)c2O [Alizarin S. Red-H^+]
[3]; 1.17 M solution in H2O
  density of solution: 1.00 g/mL
[3]; 1.23 M solution in H2O
  density of solution: 1.04 g/mL
[3]; 1.46 M solution in 0.1 M HClO4
  density of solution: 0.95 g/mL
[2]
  solubility: ~1500 mM (≈ 480 mg/mL)
  solubility (concentration values): 1600 mM (≈ 512 mg/mL)

Reference: patent US10710964B2, “Organic electrolyte compounds for redox-flow batteries” (FUNDACIÓN CENTRO DE INVESTIGACIÓN COOPERATIVA DE ENERGÍAS …, priority 2015, dated 2020)
